Experiments:
[1] = molecular target: Carbonic anhydrase 2 (Homo sapiens) (UniProt P00918); experiment: Activation of human recombinant CA2 by stopped flow CO2 hydration assay
[2] = molecular target: Carbonic anhydrase 1 (Homo sapiens) (UniProt P00915); experiment: Activation of human recombinant CA1 by stopped flow CO2 hydration assay
[3] = molecular target: Carbonic anhydrase 9 (Homo sapiens) (UniProt Q16790); experiment: Activation of human recombinant CA9 catalytic domain by stopped flow CO2 hydration assay

Carbonic anhydrase 1 (Homo sapiens), sequence (P00915 2-261 limits assumed): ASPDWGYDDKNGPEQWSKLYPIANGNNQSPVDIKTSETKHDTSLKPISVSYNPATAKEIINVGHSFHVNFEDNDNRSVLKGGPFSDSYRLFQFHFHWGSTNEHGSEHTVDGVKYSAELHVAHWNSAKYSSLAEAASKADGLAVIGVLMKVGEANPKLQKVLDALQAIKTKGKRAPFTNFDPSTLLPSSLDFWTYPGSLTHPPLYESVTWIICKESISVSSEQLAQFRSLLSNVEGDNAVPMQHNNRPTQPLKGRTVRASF

Structure (SMILES) | KA [1] [µM] | KA [2] [µM] | KA [3] [µM]
N[C@@H](Cc1c[nH]cn1)C(=O)NNS(=O)(=O)c1ccc(I)cc1 | 0.21 | 76.3 | 14.1
N[C@@H](Cc1c[nH]cn1)C(=O)NNS(=O)(=O)c1ccc(C(F)(F)F)cc1 | 49.5 | 38.9 | 22.4
Cc1ccc(S(=O)(=O)NNC(=O)[C@@H](N)Cc2c[nH]cn2)cc1 | 25 | 46.8 | 18.1
N[C@@H](Cc1c[nH]cn1)C(=O)NNS(=O)(=O)c1ccc2ccccc2c1 | 18 | 63.8 | 24.1
N[C@@H](Cc1c[nH]cn1)C(=O)NNS(=O)(=O)c1ccc(Br)cc1 | 19.6 | 55.7 | 13.8
N[C@@H](Cc1c[nH]cn1)C(=O)NNS(=O)(=O)c1ccc(Cl)cc1 | 6.53 | 70.1 | 35.4
N[C@@H](Cc1c[nH]cn1)C(=O)NNS(=O)(=O)c1ccc(F)cc1 | 44.8 | 63.4 | 19.5
N[C@@H](Cc1c[nH]cn1)C(=O)NNS(=O)(=O)c1ccc([N+](=O)[O-])cc1 | 45.6 | 54.7 | 30.5
N#Cc1ccc(S(=O)(=O)NNC(=O)[C@@H](N)Cc2c[nH]cn2)cc1 | 28.7 | 40.3 | 17.8
N[C@@H](Cc1c[nH]cn1)C(=O)NNS(=O)(=O)c1ccc(-c2ccccc2)cc1 | 51.7 | 33.1 | 28.5
CC(C)(C)c1ccc(S(=O)(=O)NNC(=O)[C@@H](N)Cc2c[nH]cn2)cc1 | 45.2 | 78.9 | 29.8
COc1ccc(S(=O)(=O)NNC(=O)[C@@H](N)Cc2c[nH]cn2)cc1 | 38 | 44.8 | 27.4
N[C@@H](Cc1c[nH]cn1)C(=O)NNS(=O)(=O)c1c(F)c(F)c(F)c(F)c1F | 50.2 | 42.5 | 30.2
